One substance from patent US20240301409A1, “Chemically Modified Small Activating RNA” (RACTIGEN THERAPEUTICS, priority 2021, published 2024) can be followed below.

The data set deals with J82 cells. The data set can be described thus: Apoptosis detection (FITC Annexin V, flow cytometry) in J82 cells with or without PBMC co-culture. In kind it is cell-based, human. As for the experimental part: J82 cells were transfected with RAG1-40-31 and RAG1-40-53 at final concentrations of 0.1, 1, 10 and 25 nM, and 24 hours after transfection, fresh medium was replaced and a certain ratio of PBMC cells was added (J82 cells:PBMC cells=1:4). The cells were co-cultured for 48 hours. After co-culture, cells were collected and cell apoptosis was detected by flow cytometry. FIGS. 13A-13B show the relative proliferation proportion of J82 cells after the combined treatment with chemically modified saRNA RAG1-40-31 and Mitomycin C. […] Control and DMSO are the blank transfection control and the solvent for dilution control, respectively.
J82 cells were transfected with RAG1-40-31 at 0.1, 1, 10 and 25 nM. After 24 hours of transfection, the cells were refreshed with PBMC cell-containing fresh medium. The PBMC and J82 cells were co-cultured for 48 hours, and then the supernatant was discarded and the cells were collected. 500 μL PBS was added to each well for washing and then discarded, before the addition of 100 μL trypsin/well. 900 μL medium was added to stop digestion and the content was transferred to a 1.5 mL centrifuge tube. All the cells were collected through centrifugation (400 rcf, 5 min) and counted (1˜2×10^5 cells/100 μL Binding Buffer). 100 μL of 1× Binding Buffer (B&D Systems, 51-66121E), 5 μL FITC Annexin V (B&D Systems, 51-65874X) and 5 μL PI (B&D Systems, 51-66211E) were added before incubation in dark at room temperature for 15 minutes. After the incubation, 100 μL of 1× binding buffer was added before blending and transferring to a 96-well plate for analysis with flow cytometer (Beckman Coulter). The sample should be analyzed within 1 hour.
In order to verify this hypothesis, in this example, RAG1-40-31 duplex was selected to transfect J82 cells, and after 24 hours of transfection, the cells were refreshed with fresh medium and PBMC cells at a certain ratio (J82 cells:PBMC cells=1:4) were added, or cells free of PBMC were replaced as control. After 48 hours of co-culture, FITC Annexin V kit was used to detect the apoptosis of tumor cells on a flow cytometer. […] In PBMC-free cell culture, for RAG1-40-31 treatments at 0.1, 1, 10 and 25 nM, the percentages of cells in early apoptosis were 2.3%, 2.6%, 9.4% and 15.5%, respectively, and the percentages of cells in late apoptosis were 5.3%, 5.2%, 6.7% and 9.1%, respectively. In co-culture with PBMC cells, for RAG1-40-31 treatments at 0.1, 1, 10 and 25 nM, the percentages of cells in early apoptosis were 2.0%, 4.5%, 31.5% and 49.3%, respectively, and the percentages of cells in late apoptosis were 5.6%, 7.3%, 6.3% and 5.8%, respectively.
(Flow cytometry measures light scatter and fluorescence of single cells or particles in a stream.)

Where [1] appears, read: co-culture with PBMC cells (1:4) 48 hours, 0.1 nM.
Setting [2] is: co-culture with PBMC cells (1:4) 48 hours, 1 nM.
Where [3] appears, read: co-culture with PBMC cells (1:4) 48 hours, 10 nM.
[4] abbreviates: co-culture with PBMC cells (1:4) 48 hours, 25 nM.

Take “RAG1-40-31: saRNA duplex: sense fCfCAACUCAUUCUCCAAG*U*C (SEQ ID NO 16); antisense U*A*fCfUfUGGAGAAfUGAGfUfUGG*fC*A (SEQ ID NO 12) (sense CCAACUCAUUCUCCAAGUC; antisense UACUUGGAGAAUGAGUUGGCA; 2'-F and phosphorothioate modifications; modified_base (1)..(2) (1,2)=2′-fluoro; modified_base (17)..(19) (17,18,19)=phosphorothioate (PS) backbone modification; modified_base (2)..(21) (2,3,19,20,21)=phosphorothioate (PS) backbone modification; modified_base (3)..(20) (3,4,5,12,16,17,20)=2′-fluoro)”: the “percentage of cells in early apoptosis” value (PBMC-free cell culture, 0.1 nM) turned out to be 2.3%; the “percentage of cells in early apoptosis” value (PBMC-free cell culture, 1 nM) is on record as 2.6%; the “percentage of cells in early apoptosis” value (PBMC-free cell culture, 10 nM) was 9.4%; the “percentage of cells in early apoptosis” value (PBMC-free cell culture, 25 nM) was 15.5%; the “percentage of cells in early apoptosis” value under setting [1] was determined as 2.0%; the “percentage of cells in early apoptosis” value under setting [2] is recorded as 4.5%. In addition, the “percentage of cells in early apoptosis” value is, setting by setting: under setting [3], 31.5%; under setting [4], 49.3%. The “percentage of cells in late apoptosis” value reads like this: (PBMC-free cell culture, 0.1 nM) 5.3%; (PBMC-free cell culture, 1 nM) 5.2%; (PBMC-free cell culture, 10 nM) 6.7%; (PBMC-free cell culture, 25 nM) 9.1%; under setting [1], 5.6%; under setting [2], 7.3%. For the same substance, the “percentage of cells in late apoptosis” value by setting is: under setting [3], 6.3%; under setting [4], 5.8%.
